Positions count from the first letter of the chain named. Where a name gives a salt, the structure may show the parent alone. Read-outs that look alike come from different tables or passages of the source.
Experiments:
[1] = target: T1, K2P9.1 (Homo sapiens, UniProt Q9NPC2); experiment: Thallium-flux counter assay, tetracycline induced HEK293-K2P9.1 cells; format: cell-based; details: for K2P9.1 Maximum Activity: dash = lack of compound activity
[2] = target: T2, human K2P18.1 (Homo sapiens, UniProt Q7Z418); experiment: Thallium-flux assay, HEK293 cells transfected with human K2P18.1; format: cell-based; details: for K2P18.1 Minimum Activity: fitted minimum, fixed at 0 where indicated
T2 sequence (Q7Z418 1-384): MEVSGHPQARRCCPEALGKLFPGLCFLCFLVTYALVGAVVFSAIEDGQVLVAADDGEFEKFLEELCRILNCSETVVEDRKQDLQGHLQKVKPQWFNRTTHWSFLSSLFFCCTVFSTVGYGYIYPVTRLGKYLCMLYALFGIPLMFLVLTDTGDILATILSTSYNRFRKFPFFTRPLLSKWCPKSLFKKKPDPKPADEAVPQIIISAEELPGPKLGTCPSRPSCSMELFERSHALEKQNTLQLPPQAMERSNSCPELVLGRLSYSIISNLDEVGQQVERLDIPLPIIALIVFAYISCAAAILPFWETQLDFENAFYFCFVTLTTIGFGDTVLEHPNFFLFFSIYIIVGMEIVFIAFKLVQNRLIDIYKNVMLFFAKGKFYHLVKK

[3] = target: T3, wild type K2P18.1 (wtK2P18.1) (Homo sapiens, UniProt Q7Z418); experiment: Whole-cell patch clamp, HEK293-wtK2P18.1; format: cell-based
T3 sequence (Q7Z418 1-384): T2 sequence (Q7Z418 1-384)

[4] = target: T4, F145A/F352A double mutant K2P18.1 (mutK2P18.1) (Homo sapiens, UniProt Q7Z418, F145A/F352A); experiment: Thallium-flux assay, F145A/F352A double mutant K2P18.1 in HEK293 cells; format: cell-based
T4 sequence (Q7Z418 1-384 F145A/F352A): T2 sequence (Q7Z418 1-384) with F145A, F352A

[5] = target: T4, F145A/F352A double mutant K2P18.1 (mutK2P18.1); experiment: Whole-cell patch clamp, HEK293-mutK2P18.1; details: read-out: inhibition of mutK2P18.1 current
[6] = tested on: mouse K2P18.1; details: 1 mM; ref Kim et al., 2013; cited from earlier work
[7] = tested on: F156A/F364A double mutant mouse K2P18.1; details: 1 mM; ref Kim et al., 2013; cited from earlier work
[8] = target: T1, K2P9.1; experiment: Whole-cell patch clamp, tetracycline induced HEK293-K2P9.1 cells; format: cell-based
[9] = read-out: K2P9.1 IC50, validation assay, Tl+ flux, HEK293-K2P9.1, highest 30 μM
[10] = read-out: inhibition of wtK2P18.1 current
[11] = validation assay, Tl+ flux, activators
[12] = read-out: K2P9.1 EC50, validation assay, Tl+ flux, activators, highest 30 μM
[13] = read-out: K2P18.1 EC50, validation assay, Tl+ flux, activators, highest 30 μM

T1 sequence (Q9NPC2 whole entry): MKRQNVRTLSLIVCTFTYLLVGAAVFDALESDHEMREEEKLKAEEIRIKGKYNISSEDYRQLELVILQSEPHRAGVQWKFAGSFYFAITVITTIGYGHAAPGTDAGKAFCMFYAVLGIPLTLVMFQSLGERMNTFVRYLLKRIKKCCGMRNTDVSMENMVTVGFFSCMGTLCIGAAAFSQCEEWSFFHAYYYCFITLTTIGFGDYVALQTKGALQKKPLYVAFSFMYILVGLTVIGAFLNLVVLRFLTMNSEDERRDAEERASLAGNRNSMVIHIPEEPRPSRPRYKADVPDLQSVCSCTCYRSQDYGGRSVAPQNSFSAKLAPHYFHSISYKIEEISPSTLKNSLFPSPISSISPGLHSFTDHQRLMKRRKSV

Cc1c(CC(C)(C)C(=O)O)n(Cc2ccc(Cl)cc2)c2ccc(F)cc12 [L-655,240]
IC50 [1, 9]: > 30 µM
K2P18.1 Minimum Activity ([2]; validation assay, Tl+ flux): 0 (fixed) %

CC(=O)c1c(O)c(C)c(O)c(Cc2c(O)c3c(c(C(=O)/C=C/c4ccccc4)c2O)OC(C)(C)C=C3)c1O [Rottlerin]
IC50 [1]: > 30 µM
IC50 [2]: 16.2 µM
K2P18.1 Minimum Activity ([2]; validation assay, Tl+ flux): 17.2 (± 42.4) %

CS(=O)(=O)O.Cc1c(C(=O)c2cccc3ccccc23)c2cccc3c2n1[C@H](CN1CCOCC1)CO3 [(R)-(+)-WIN 55,212–2 mesylate]
IC50 [1, 9]: > 30 µM
K2P18.1 Minimum Activity ([2]; validation assay, Tl+ flux): 25.6 (± 28.3) %

Clc1ccc(C(c2ccc(Cl)cc2)n2cc[n+](CC(OCc3ccc(Cl)cc3Cl)c3ccc(Cl)cc3Cl)c2)cc1 (centres unmarked) [Calmidazolium chloride]
IC50 [1]: > 30 µM
K2P18.1 Minimum Activity ([2]; validation assay, Tl+ flux): 0 (fixed) %

CCN(CC)CC(=O)Nc1c(C)cccc1C [lidocaine, 2-Diethylamino-N-(2,6-dimethylphenyl)acetamide]
inhibition at 1000 µM [3, 10]: 65.2 ± 10.4%
IC50 ([2]; IC50 for K2P18.1 inhibition without carbachol, Tl+ flux, absence of carbachol): 3650 ± 380 µM
IC50 [4]: 11600 ± 7100 µM
inhibition at 1000 µM [5]: 18.2 ± 5.8%
inhibition of wild type mouse K2P18.1 [6]: 83 ± 5%
inhibition of F156A/F364A double mutant mouse K2P18.1 [7]: 20 ± 15%

COCC(=O)O[C@]1(CCN(C)CCCc2nc3ccccc3[nH]2)CCc2cc(F)ccc2[C@@H]1C(C)C [Mibefradil dihydrochloride]
K2P18.1 Minimum Activity ([2]; validation assay, Tl+ flux): 11.9 (± 2.04) %

COc1cccc(-c2cc(=O)c3ccccc3o2)c1N [PD98,059]
IC50 [1, 9]: > 30 µM
K2P18.1 Minimum Activity ([2]; validation assay, Tl+ flux): 22.9 (± 23.3) %

Cn1c(=O)c2c(nc(C=Cc3cccc(Cl)c3)n2C)n(C)c1=O [8-(3-Chlorostyryl)caffeine]
IC50 [1]: > 30 µM
K2P18.1 Minimum Activity ([2]; validation assay, Tl+ flux): 0 (fixed) %

CCOC(=O)N1CCC(=C2c3ccc(Cl)cc3CCc3cccnc32)CC1 [Loratadine]
IC50 [3]: 0.49 ± 0.23 µM
selectivity for K2P18.1 over K2P9.1 ([3]; from patch clamp IC50 values): ~ 11 fold
inhibition at 10 µM [3, 10]: 87.5 ± 3.7%
IC50 [8]: 5.27 ± 1.69 µM
K2P18.1 Minimum Activity ([2]; validation assay, Tl+ flux): 0 (fixed) %
inhibition at 150 µM ([4]; HEK293, read-out: inhibition against mutK2P18.1): < 50%
lower potency against mutK2P18.1 compared to wtK2P18.1 ([4]; Tl+ flux): at least 50 fold
inhibition at 10 µM [5]: 3.9 ± 13.3%

Oligomycin A
K2P18.1 Minimum Activity ([2]; validation assay, Tl+ flux): 52.0 (± 4.21) %

CC(C)c1ccc2c(c1)c(SC(C)(C)C)c(CC(C)(C)C(=O)O)n2Cc1ccc(Cl)cc1 [MK-886]
IC50 [1, 9]: > 30 µM
K2P18.1 Minimum Activity ([2]; validation assay, Tl+ flux): 23.5 (± 6.6) %

COC(=O)C1=CCCN(C)C1 [Arecoline hydrobromide]
EC50 [1]: > 30 µM
K2P9.1 Maximum Activity [1, 11]: -
EC50 [2]: 2.7 µM
K2P18.1 Maximum Activity [2, 11]: 155 (± 10.8) %

O=C(CCCN1CCC2(CC1)C(=O)NCN2c1ccccc1)c1ccc(F)cc1 [Spiperone Hydrochloride]
EC50 [1]: > 30 µM
K2P9.1 Maximum Activity [1, 11]: -
EC50 [2]: 3.02 µM
K2P18.1 Maximum Activity [2, 11]: 161 (± 4.90) %

C[N+](C)(C)CC#CCN1CCCC1=O [Oxotremorine Methiodide]
EC50 [1]: > 30 µM
K2P9.1 Maximum Activity [1, 11]: -
EC50 [2]: 0.24 µM
K2P18.1 Maximum Activity [2, 11]: 171 (± 4.60) %

CN1CCN(C2Cc3ccccc3Sc3ccc(Cl)cc32)CC1.O=C(O)/C=C\C(=O)O (racemic) [(±)-Octoclothepin maleate]
K2P18.1 Minimum Activity ([2]; validation assay, Tl+ flux): 0 (fixed) %

COc1cc2c(cc1OC)-c1c/c(=N\c3c(C)cc(C)cc3C)n(C)c(=O)n1CC2 [Trequinsin hydrochloride]
IC50 [1]: > 30 µM
K2P18.1 Minimum Activity ([2]; validation assay, Tl+ flux): 3.90 (± 20.2) %

C[C@@H]1O[C@H](C[N+](C)(C)C)CS1.[I-] [OXA-22 Iodide]
EC50 [1, 12]: > 30 µM
K2P9.1 Maximum Activity [1, 11]: -
EC50 [2, 13]: 0.06 µM
K2P18.1 Maximum Activity [2, 11]: 166 (± 4.50) %

CC(=O)OC(C)C[N+](C)(C)C.[Cl-] (stereo not drawn) [Acetyl-beta-methylcholine chloride]
EC50 [1, 12]: > 30 µM
K2P9.1 Maximum Activity [1, 11]: -
EC50 [2, 13]: 0.65 µM
K2P18.1 Maximum Activity [2, 11]: 184 (± 2.38) %

Ic1ccccc1CNC1C2CCN(CC2)C1C(c1ccccc1)c1ccccc1.O=C(O)C(=O)O [L-703,606 oxalate]
K2P18.1 Minimum Activity ([2]; validation assay, Tl+ flux): 1.30 (± 9.2) %

CCCn1c(C)c(C(=O)c2cccc3ccccc23)c2ccccc21 [JWH-015]
IC50 [1, 9]: > 30 µM
K2P18.1 Minimum Activity ([2]; validation assay, Tl+ flux): 26.7 (± 2.1) %

CC[C@H](C)C(=O)O[C@H]1CCC=C2C=C[C@H](C)[C@H](CC[C@@H]3C[C@@H](O)CC(=O)O3)[C@H]21 [Mevastatin]
IC50 [1]: > 30 µM
K2P18.1 Minimum Activity ([2]; validation assay, Tl+ flux): 13.7 (± 7.6) %

OCc1ccc(-c2nn(Cc3ccccc3)c3ccccc23)o1 [YC-1]
IC50 [1, 9]: > 30 µM
K2P18.1 Minimum Activity ([2]; validation assay, Tl+ flux): 0 (fixed) %

CCCCOC(=O)NS(=O)(=O)c1sc(CC(C)C)cc1-c1ccc(Cn2c(CC)nc3c(C)cc(C)nc32)cc1 [L-162,313]
IC50 [1, 9]: > 30 µM
K2P18.1 Minimum Activity ([2]; validation assay, Tl+ flux): 15.5 (± 12.5) %

CC1OCC(C[N+](C)(C)C)O1.[I-] (single isomer, unassigned; (+)) [(+)-cis-Dioxolane iodide]
EC50 [1, 12]: > 30 µM
K2P9.1 Maximum Activity [1, 11]: -
EC50 [2, 13]: 0.04 µM
K2P18.1 Maximum Activity [2, 11]: 165 (± 3.00) %

C/C=C1\C(=O)C[C@H]2[C@@H]3CCC4=CC(=O)CC[C@]4(C)[C@H]3CC[C@]12C [(Z)-Gugglesterone]
IC50 [1, 9]: > 30 µM
K2P18.1 Minimum Activity ([2]; validation assay, Tl+ flux): 0 (fixed) %

COc1cc([C@@H]2c3cc4c(cc3[C@H](O)[C@H]3COC(=O)[C@H]23)OCO4)cc(OC)c1OC [Podophyllotoxin]
IC50 [1]: > 30 µM
IC50 [2]: 7.32 µM
K2P18.1 Minimum Activity ([2]; validation assay, Tl+ flux): 0 (fixed) %

C[N+](C)(C)CCOC(N)=O [Carbachol, carbamoylcholine chloride, (2-Hydroxyethyl)trimethyl-ammonium chloride carbamate]
EC50 [1]: > 30 µM
K2P9.1 Maximum Activity [1, 11]: -
EC50 [2]: 1.59 µM
K2P18.1 Maximum Activity [2, 11]: 190 (± 9.96) %

CN(C)c1cc2c(Nc3ccc4c(cnn4Cc4ccccc4)c3)ncnc2cn1 [GW2974]
K2P18.1 Minimum Activity ([2]; validation assay, Tl+ flux): 0 (fixed) %

CCCCCCCCCCCCCC(=O)O[C@@H]1[C@@H](C)[C@@]2(O)[C@@H](C=C(CO)C[C@]3(O)C(=O)C(C)=C[C@@H]23)[C@@H]2C(C)(C)[C@]12OC(C)=O [Phorbol 12-myristate 13-acetate]
EC50 [1]: > 30 µM
K2P9.1 Maximum Activity [1, 11]: -
EC50 [2]: 0.03 µM
K2P18.1 Maximum Activity [2]: 130 (± 2.01) %

Cl.Cl.Fc1ccc(C(OCCN2CCN(CCCc3ccccc3)CC2)c2ccc(F)cc2)cc1 [GBR-12909 dihydrochloride]
IC50 [1, 9]: > 30 µM
K2P18.1 Minimum Activity ([2]; validation assay, Tl+ flux): 0 (fixed) %

CCCC(=O)NCCc1c2n(c3ccc(OC)cc13)CCCc1ccccc1-2 [K185]
IC50 [1, 9]: > 30 µM
K2P18.1 Minimum Activity ([2]; validation assay, Tl+ flux): 0 (fixed) %

Br.CO[C@H]1CC=C2CCN3CCC4=C(CC(=O)OC4)[C@]23C1 [Dihydro-beta-erythroidine hydrobromide]
K2P18.1 Minimum Activity ([2]; validation assay, Tl+ flux): 0 (fixed) %

From paper PMC4222048 (European journal of pharmacology, 2014)
